This passage reports MIC results from ChEMBL document CHEMBL1139242, “Peptide deformylase inhibitors of Mycobacterium tuberculosis: synthesis, structural investigations, and biological results” (Bioorg Med Chem Lett, 2008).

Values after ≈ are worked out from the molar mass of the structure shown.

The test has as its system Mycobacterium tuberculosis. The experiment in a line: Antimicrobial activity against Mycobacterium bovis BCG after 4 days by alamar blue assay. Conditions: variant bovis BCG, 96 h. The format is functional.
Regarding `CCCC[C@H](CN(O)C=O)C(=O)N1CCC[C@H]1c1nc2ccccc2[nH]1`, the MIC worked out at 0.6 µg/mL (≈ 1.67 µM). Next, `O=CN(O)C[C@@H](CC1CC1)C(=O)N1CCC[C@H]1c1nc2ccccc2o1`: 1.2 µg/mL (≈ 3.36 µM); `CCCC[C@H](CC(=O)O)C(=O)N1CCC[C@H]1c1nc2ccccc2o1`: 9 µg/mL (≈ 26.1 µM); `CCCC[C@H](C(=O)NO)C(=O)N1CCC[C@H]1c1nc2ccccc2[nH]1`: 4.5 µg/mL (≈ 13.1 µM). Molecule `CCCCC[C@H](CN(O)C=O)C(=O)N1CCC[C@H]1c1nc2ccccc2o1` registered an MIC of 0.6 µg/mL (≈ 1.61 µM).

In turn, `CCC[C@H](CN(O)C=O)C(=O)N1CCC[C@H]1c1nc2ccccc2o1` gave an MIC of 4.5 µg/mL (≈ 13 µM). Next, `O=CN(O)C[C@@H](Cc1ccccc1)C(=O)N1CCC[C@H]1c1nc2ccccc2[nH]1`: 9 µg/mL (≈ 22.9 µM). Next, `CCC[C@H](CN(O)C=O)C(=O)N1CCC[C@H]1c1nc2ccccc2[nH]1`: 9 µg/mL (≈ 26.1 µM). Molecule `CCCCC[C@H](CN(O)C=O)C(=O)N1CCC[C@H]1c1nc2ccccc2[nH]1` showed an MIC of 1.2 µg/mL (≈ 3.22 µM).

`CCCC[C@H](CC(=O)O)C(=O)N1CCC[C@H]1c1nc2ccccc2[nH]1` showed a minimal inhibitory concentration (MIC) of 9 µg/mL (≈ 26.2 µM). To `CCCC[C@H](CN(O)C=O)C(=O)N1CCC[C@H]1c1nc2ccccc2o1` belongs 0.6 µg/mL (≈ 1.67 µM); to `CCCC[C@H](C(=O)NO)C(=O)N1CCC[C@H]1c1nc2ccccc2o1`, 4.5 µg/mL (≈ 13 µM); to `O=CN(O)C[C@@H](Cc1ccccc1)C(=O)N1CCC[C@H]1c1nc2ccccc2o1`, 9 µg/mL (≈ 22.9 µM). For the molecule `O=CN(O)C[C@@H](CC1CC1)C(=O)N1CCC[C@H]1c1nc2ccccc2[nH]1`, the minimum inhibitory concentration (MIC) was determined as 1.2 µg/mL (≈ 3.37 µM).

A word on the MIC: it is the lowest concentration found to suppress growth. Read a high MIC as weaker potency.
